Where two headings read alike, the source gives them in different places.
Experiments:
CHI Log D procedure = assay type: physicochemical; conditions: for chromatographic logD: pH 7.4, CHI Log D; for CHI Log D: pH 7.4
[1] = target: T1, full-length beta-Catenin (Uniprot ID P35222) (Homo sapiens, UniProt P35222); experiment: Fluorescence polarization IC50 (beta-catenin / 5FAM-TCF4 10-53 competition); assay type: binding
T1 construct: 10 nM full-length beta-Catenin (Uniprot ID P35222)
T1 sequence (P35222 1-781): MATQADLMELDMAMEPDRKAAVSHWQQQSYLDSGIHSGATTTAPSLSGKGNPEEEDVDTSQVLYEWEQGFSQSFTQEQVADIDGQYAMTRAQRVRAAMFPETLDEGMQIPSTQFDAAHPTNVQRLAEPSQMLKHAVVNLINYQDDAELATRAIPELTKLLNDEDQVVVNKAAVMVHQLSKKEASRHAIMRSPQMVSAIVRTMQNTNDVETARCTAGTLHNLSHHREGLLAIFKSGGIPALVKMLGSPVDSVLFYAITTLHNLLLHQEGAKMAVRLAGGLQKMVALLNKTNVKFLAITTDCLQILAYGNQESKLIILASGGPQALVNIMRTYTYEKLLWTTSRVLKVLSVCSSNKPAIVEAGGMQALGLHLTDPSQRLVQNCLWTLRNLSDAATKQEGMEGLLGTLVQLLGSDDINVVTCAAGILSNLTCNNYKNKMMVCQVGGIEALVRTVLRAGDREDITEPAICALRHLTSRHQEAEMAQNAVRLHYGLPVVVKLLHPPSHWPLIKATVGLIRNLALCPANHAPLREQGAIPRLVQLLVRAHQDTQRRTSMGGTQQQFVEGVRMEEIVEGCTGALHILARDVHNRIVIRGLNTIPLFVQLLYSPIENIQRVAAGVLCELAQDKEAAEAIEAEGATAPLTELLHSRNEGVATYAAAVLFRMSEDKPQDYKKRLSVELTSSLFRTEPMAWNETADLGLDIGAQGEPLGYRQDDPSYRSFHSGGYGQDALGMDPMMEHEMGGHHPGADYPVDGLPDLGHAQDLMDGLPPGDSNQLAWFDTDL

[2] = Table E2-1, read-out: beta-Catenin FP IC50
[3] = fluorescence polarization, beta-catenin, read-out: FP EC50

SMILES	chromatographic logD (CHI Log D procedure)	IC50 [1, 2] [µM]	CHI Log D (CHI Log D procedure)	IC50 [1, 3] [µM]
CC(=O)N1CCC[C@]12CC=CCCCC1(CCCC=CCCCCCC[C@@](C)(C(=O)N[C@@H](Cc3ccccc3)C(=O)N[C@@H](Cc3c[nH]c4ccccc34)C(=O)N[C@@H](C)C(N)=O)NC(=O)[C@H](C(C)C)NC(=O)[C@H](Cc3ccccc3)NC(=O)[C@H](C)NC(=O)[C@H](C)NC(=O)[C@H](CCC(=O)O)NC(=O)[C@H](CC(=O)O)NC1=O)NC(=O)[C@H](C)NC(=O)[C@H](CC(=O)O)NC2=O (stereo partly drawn) [I-135, Ac-PL3-Asp-Ala-B5-Asp-Glu-Ala-Ala-Phe-Val-S8-Phe-Trp-Ala-NH2]	2.18	1.87	–	–
CC(=O)N1CCC[C@]12CC=CCCCC1(CCCC=CCCCCCC[C@@](C)(C(=O)N[C@@H](Cc3ccccc3)C(=O)N[C@@H](Cc3ccc4ccccc4n3)C(=O)N[C@@H](CCC(N)=O)C(N)=O)NC(=O)[C@H](C(C)C)NC(=O)[C@H](Cc3ccccc3)NC(=O)[C@H](C)NC(=O)[C@H](C)NC(=O)[C@H](CCC(=O)O)NC(=O)[C@H](CC(=O)O)NC1=O)NC(=O)[C@H](C)NC(=O)[C@H](CC(=O)O)NC2=O (stereo partly drawn) [I-143, Ac-PL3-Asp-Ala-B5-Asp-Glu-Ala-Ala-Phe-Val-S8-Phe-Qui-Gln-NH2]	2.07	2.27	–	–
CC[C@H](C)[C@H](NC(=O)[C@H](CC(=O)O)NC(=O)C(C)(C)NC(C)=O)C(=O)N[C@]1(C)CCN(C)C(=O)OCC=CCCCCC[C@@](C)(C(=O)N[C@@H](Cc2ccccc2)C(=O)N[C@@H](Cc2c[nH]c3ccccc23)C(N)=O)NC(=O)[C@H](CCC(N)=O)NC(=O)[C@H](Cc2ccccc2)NC(=O)[C@H](C)NC(=O)[C@H](C)NC(=O)[C@H](CCC(=O)O)NC(=O)[C@H](CC(=O)O)NC1=O [I-147, Ac-Aib-Asp-Ile-RdN-Asp-Glu-Ala-Ala-Phe-Gln-S7-Phe-Trp-NH2]	1.4	1.64	–	–
CC(=O)N1CCC[C@]12CC=CCCCC1(CCCC=CCCCCCC[C@@](C)(C(=O)N[C@@H](Cc3ccccc3)C(=O)N[C@@H](Cc3c[nH]c4c(F)cccc34)C(=O)N[C@@H](CCC(N)=O)C(N)=O)NC(=O)[C@H](C(C)C)NC(=O)[C@H](Cc3ccccc3)NC(=O)[C@H](C)NC(=O)[C@H](C)NC(=O)[C@H](CCC(=O)O)NC(=O)[C@H](CC(=O)O)NC1=O)NC(=O)[C@H](C)NC(=O)[C@H](CC(=O)O)NC2=O (stereo partly drawn) [I-166, Ac-PL3-Asp-Ala-B5-Asp-Glu-Ala-Ala-Phe-Val-S8-Phe-7FW-Gln-NH2]	2.06	2.16	–	–
CC(=O)N1CCC[C@]12CC=CCCCC1(CCCC=CCCCCCC[C@@](C)(C(=O)N[C@@H](Cc3ccccc3)C(=O)N[C@@H](Cc3c[nH]c4ccccc34)C(=O)N[C@@H](CCC(N)=O)C(N)=O)NC(=O)[C@H](C(C)C)NC(=O)[C@H](Cc3ccccc3)NC(=O)[C@H](C)NC(=O)[C@H](C)NC(=O)[C@H](CCC(=O)O)NC(=O)[C@H](CC(N)=O)NC1=O)NC(=O)[C@H](C)NC(=O)[C@H](CC(=O)O)NC2=O (stereo partly drawn) [I-198, Ac-PL3-Asp-Ala-B5-Asn-Glu-Ala-Ala-Phe-Val-S8-Phe-Trp-Gln-NH2]	2.37	5	–	–
CC(=O)N1CCC[C@]12CC=CCCCC1(CCCC=CCCCCCC[C@@](C)(C(=O)N[C@@H](Cc3cccc(F)c3)C(=O)N[C@@H](Cc3c[nH]c4ccccc34)C(=O)N[C@@H](CCC(N)=O)C(N)=O)NC(=O)[C@H](C(C)C)NC(=O)[C@H](Cc3ccccc3)NC(=O)[C@H](C)NC(=O)[C@H](C)NC(=O)[C@H](CC(=O)O)NC(=O)[C@H](CC(=O)O)NC1=O)NC(=O)[C@H](C)NC(=O)[C@H](CC(=O)O)NC2=O (stereo partly drawn) [I-260, Ac-PL3-Asp-Ala-B5-Asp-Asp-Ala-Ala-Phe-Val-S8-3FF-Trp-Gln-NH2]	2.06	5	–	–
CC(=O)N1CCC[C@]12CC=CCCCC1(CCCC=CCCCCCC[C@@](C)(C(=O)N[C@@H](Cc3ccccc3)C(=O)N[C@@H](Cc3c[nH]c4ccccc34)C(=O)N[C@@H](CCC(N)=O)C(N)=O)NC(=O)[C@H](C(C)C)NC(=O)[C@H](Cc3ccc(F)cc3)NC(=O)[C@H](C)NC(=O)[C@H](C)NC(=O)[C@H](CC(=O)O)NC(=O)[C@H](CC(=O)O)NC1=O)NC(=O)[C@H](C)NC(=O)[C@H](CC(=O)O)NC2=O (stereo partly drawn) [I-266, Ac-PL3-Asp-Ala-B5-Asp-Asp-Ala-Ala-4FF-Val-S8-Phe-Trp-Gln-NH2]	2.02	5	–	–
CC(=O)N1CCC[C@]12CC=CCCCC1(CCCC=CCCCCCC[C@@](C)(C(=O)N[C@@H](Cc3ccccc3)C(=O)N[C@@H](Cc3c[nH]c4ccccc34)C(=O)N[C@@H](CCC(N)=O)C(N)=O)NC(=O)[C@H](C(C)C)NC(=O)[C@H](Cc3ccccc3)NC(=O)[C@H](C)NC(=O)[C@H](C)NC(=O)[C@H](Cc3ccccn3)NC(=O)[C@H](CC(=O)O)NC1=O)NC(=O)[C@H](C)NC(=O)[C@H](CC(=O)O)NC2=O (stereo partly drawn) [I-270, Ac-PL3-Asp-Ala-B5-Asp-2PyrA-Ala-Ala-Phe-Val-S8-Phe-Trp-Gln-NH2]	2.5	5	–	–
CC(=O)N1CCC[C@]12CC=CCCCC1(CCCC=CCCCCCC[C@@](C)(C(=O)N[C@@H](Cc3ccccc3)C(=O)N[C@@H](Cc3c[nH]c4ccccc34)C(=O)N[C@@H](C)C(N)=O)NC(=O)[C@H](C)NC(=O)[C@H](Cc3ccccc3)NC(=O)[C@H](C)NC(=O)[C@H](C)NC(=O)[C@H](CC(=O)O)NC(=O)[C@H](CC(=O)O)NC1=O)NC(=O)[C@H](C)NC(=O)[C@H](CC(=O)O)NC2=O (stereo partly drawn) [I-286, Ac-PL3-Asp-Ala-B5-Asp-Asp-Ala-Ala-Phe-Ala-S8-Phe-Trp-Ala-NH2]	2.01	4.48	–	–

More lines, now with the values ahead:

chromatographic logD (CHI Log D procedure)	IC50 [1, 2] [µM]	CHI Log D (CHI Log D procedure)	IC50 [1, 3] [µM]	SMILES
1.34	5	–	–	CC[C@H](C)[C@H](NC(=O)[C@H](CC(=O)O)NC(=O)[C@H](C)NC(C)=O)C(=O)N[C@]1(C)CCN(C)C(=O)OCC=CCCCCC[C@@](C)(C(=O)N[C@@H](Cc2ccccc2)C(=O)N[C@@H](Cc2c[nH]c3ccccc23)C(=O)N[C@@H](Cc2c[nH]cn2)C(N)=O)NC(=O)[C@H](C)NC(=O)[C@H](Cc2ccccc2)NC(=O)[C@H](C)NC(=O)[C@H](C)NC(=O)[C@H](CCC(=O)O)NC(=O)[C@H](CC(=O)O)NC1=O [I-152, Ac-Ala-Asp-Ile-RdN-Asp-Glu-Ala-Ala-Phe-Ala-S7-Phe-Trp-His-NH2]
2.07	2.8	–	–	CC(=O)N1CCC[C@]12CC=CCCCC1(CCCC=CCCCCCC[C@@](C)(C(=O)N[C@@H](Cc3ccccc3)C(=O)N[C@@H](Cc3c[nH]c4ccccc34)C(=O)N[C@@H](CCC(N)=O)C(N)=O)NC(=O)[C@H](C(C)C)NC(=O)[C@H](Cc3ccccc3)NC(=O)[C@H](C)NC(=O)[C@H](C)NC(=O)[C@@H](CCC(=O)O)NC(=O)[C@H](CC(=O)O)NC1=O)NC(=O)[C@H](C)NC(=O)[C@H](CC(=O)O)NC2=O (stereo partly drawn) [I-182, Ac-PL3-Asp-Ala-B5-Asp-DGlu-Ala-Ala-Phe-Val-S8-Phe-Trp-Gln-NH2]
2.27	3.11	–	–	CC(=O)N1CCC[C@]12CC=CCCCC1(CCCC=CCCCCCC[C@@](C)(C(=O)N[C@@H](Cc3ccccc3)C(=O)N[C@@H](Cc3ccc4ccccc4c3)C(=O)N[C@@H](CCC(N)=O)C(N)=O)NC(=O)[C@H](C(C)C)NC(=O)[C@H](Cc3ccc(F)c(F)c3)NC(=O)[C@H](C)NC(=O)[C@H](C)NC(=O)[C@H](CCC(=O)O)NC(=O)[C@H](CC(=O)O)NC1=O)NC(=O)[C@H](C)NC(=O)[C@H](CC(=O)O)NC2=O (stereo partly drawn) [I-184, Ac-PL3-Asp-Ala-B5-Asp-Glu-Ala-Ala-34FF-Val-S8-Phe-2NapA-Gln-NH2]
–	3.32	2.083	3.32	CC(=O)N1CCC[C@]12CC=CCCCC1(CCCC=CCCCCCC[C@@](C)(C(=O)N[C@@H](Cc3ccccc3)C(=O)N[C@@H](Cc3c[nH]c4ccccc34)C(=O)N[C@@H](C)C(N)=O)NC(=O)[C@H](C)NC(=O)[C@H](Cc3ccccc3)NC(=O)[C@H](C)NC(=O)[C@H](C)NC(=O)[C@H](CCC(=O)O)NC(=O)[C@H](CC(=O)O)NC1=O)NC(=O)[C@H](C)NC(=O)[C@H](CC(=O)O)NC2=O (stereo partly drawn) [I-187, Ac-PL3-Asp-Ala-B5-Asp-Glu-Ala-Ala-Phe-Ala-S8-Phe-Trp-Ala-NH2]
2.01	5	–	–	CC(=O)N1CCC[C@]12CC=CCCCC1(CCCC=CCCCCCC[C@@](C)(C(=O)N[C@@H](Cc3ccc(F)cc3)C(=O)N[C@@H](Cc3c[nH]c4ccccc34)C(=O)N[C@@H](CCC(N)=O)C(N)=O)NC(=O)[C@H](C(C)C)NC(=O)[C@H](Cc3ccccc3)NC(=O)[C@H](C)NC(=O)[C@H](C)NC(=O)[C@H](CC(=O)O)NC(=O)[C@H](CC(=O)O)NC1=O)NC(=O)[C@H](C)NC(=O)[C@H](CC(=O)O)NC2=O (stereo partly drawn) [I-261, Ac-PL3-Asp-Ala-B5-Asp-Asp-Ala-Ala-Phe-Val-S8-4FF-Trp-Gln-NH2]
–	3.29	2.271	3.29	CC(=O)N1CCC[C@]12CC=CCCCC1(CCCC=CCCCCCC[C@@](C)(C(=O)N[C@@H](Cc3ccccc3)C(=O)N[C@@H](Cc3c[nH]c4ccccc34)C(N)=O)NC(=O)[C@H](C(C)C)NC(=O)[C@H](Cc3ccccc3)NC(=O)[C@H](C)NC(=O)[C@H](C)NC(=O)[C@H](CC(=O)O)NC(=O)[C@H](CC(=O)O)NC1=O)NC(=O)[C@H](C)NC(=O)[C@H](CC(=O)O)NC2=O (stereo partly drawn) [I-290, Ac-PL3-Asp-Ala-B5-Asp-Asp-Ala-Ala-Phe-Val-S8-Phe-Trp-NH2]

Source: US20240116985A1, “STAPLED PEPTIDES AND METHODS THEREOF” (priority 2020, published 2024)
